For 2 molecules, IC50 results are on record in patent US20130261130A1, “NEUROTRYPSIN INHIBITORS” (priority 2010, published 2013).

The target in the assay is T1, human neurotrypsin (Homo sapiens, UniProt P56730).
T1 sequence (P56730 21-875): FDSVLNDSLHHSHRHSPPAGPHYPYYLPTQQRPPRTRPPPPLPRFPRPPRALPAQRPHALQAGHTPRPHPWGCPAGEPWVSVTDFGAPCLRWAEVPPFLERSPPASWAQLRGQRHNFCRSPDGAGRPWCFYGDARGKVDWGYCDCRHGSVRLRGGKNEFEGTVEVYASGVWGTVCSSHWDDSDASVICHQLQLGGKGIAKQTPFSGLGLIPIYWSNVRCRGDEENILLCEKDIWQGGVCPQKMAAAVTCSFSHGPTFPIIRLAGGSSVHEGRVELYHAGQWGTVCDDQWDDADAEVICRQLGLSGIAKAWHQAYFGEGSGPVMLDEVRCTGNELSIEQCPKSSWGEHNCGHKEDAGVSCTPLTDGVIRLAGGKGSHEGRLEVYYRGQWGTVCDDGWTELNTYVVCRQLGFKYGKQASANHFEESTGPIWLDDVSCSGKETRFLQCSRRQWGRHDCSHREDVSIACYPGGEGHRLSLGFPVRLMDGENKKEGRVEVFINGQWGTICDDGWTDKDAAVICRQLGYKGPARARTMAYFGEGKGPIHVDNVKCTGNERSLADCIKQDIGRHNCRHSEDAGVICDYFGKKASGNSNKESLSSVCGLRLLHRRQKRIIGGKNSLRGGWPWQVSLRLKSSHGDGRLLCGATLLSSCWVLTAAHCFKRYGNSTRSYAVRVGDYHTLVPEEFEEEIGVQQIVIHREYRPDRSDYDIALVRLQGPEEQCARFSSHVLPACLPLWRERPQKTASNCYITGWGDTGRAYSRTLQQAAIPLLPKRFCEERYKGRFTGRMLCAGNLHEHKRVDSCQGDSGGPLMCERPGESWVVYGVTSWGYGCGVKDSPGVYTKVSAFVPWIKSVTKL
The assay can be described thus: Determination of IC50 for human neurotrypsin. The assay is classed as biochemical. The note with it: human neurotrypsin; method of WO 2006/1103261; read-out: Neurotrypsin IC50. The method, then: Assessment of the potency of compounds of examples 1-311 in inhibiting the enzymatic activity of human neurotrypsin was performed according to the method described in patent application WO 2006/1103261

For orientation: IC50 means the concentration that gives 50% inhibition.

As for `O=C(COc1ccc(NC(=O)c2ccc(-c3nc4cc(Cl)c(Cl)cc4[nH]3)cc2)c(C(=O)O)c1)Nc1ccc(Cl)cc1` [Example 311, 5-(4-Chlorophenylcarbamoylmethoxy)-2-(4-(5,6-dichloro-1H-benzo[d]imidazol-2-yl)benzamido)benzoic acid], the IC50 came out at 0.5 µM.

As to “N-(5-(5-Chloro-1,3-thiazol-2-ylcarbamoyl)-2-(2H-tetrazol-5-yl)phenyl)-5-phenyl-thiophene-2-carboxamide [Example 228]”, the IC50 was 6.6 µM.
